From patent US20050222269A1, “Use of deprenyl compounds to treat viral infections and reduce tissue damage associated therewith” (priority 1998, published 2005)

What was measured:
Hela T4/env cells = assay: CTL-mediated killing (51Cr release) of Hela T4/env cells expressing SIV env; type: cell-based; conditions: for Effect on CTL-mediated cell killing / lysis (in words): Hela T4/env cells; for Percent Specific Lysis: Hela T4/env target cells, compound 1.0 nM added at beginning of 5 hour assay, 51Cr release
ClR/env cells = assay: CTL-mediated killing (51Cr release) of C1R/env cells expressing SIV env; type: cell-based, human; conditions: for Effect on CTL-mediated cell killing / lysis (in words): C1R/env cells; for Percent Specific Lysis: ClR/env target cells, compound 1.0 nM added at beginning of 5 hour assay, 51Cr release
GAPDH = GAPDH (Homo sapiens, UniProt P04406); type: biochemical; conditions: gel filtration of GAPDH incubated with DMD
Sequence of GAPDH (P04406 whole entry, species assumed): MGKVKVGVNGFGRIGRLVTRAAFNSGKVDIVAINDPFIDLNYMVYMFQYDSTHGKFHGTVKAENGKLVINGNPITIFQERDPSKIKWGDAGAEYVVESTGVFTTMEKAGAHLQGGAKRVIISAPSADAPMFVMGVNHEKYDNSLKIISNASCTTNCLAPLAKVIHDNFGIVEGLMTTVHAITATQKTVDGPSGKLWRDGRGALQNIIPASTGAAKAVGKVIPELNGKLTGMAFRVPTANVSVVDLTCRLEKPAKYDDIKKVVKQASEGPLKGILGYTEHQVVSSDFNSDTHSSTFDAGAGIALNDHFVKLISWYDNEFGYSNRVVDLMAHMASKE

huBLCL/env cells = assay: CTL-mediated killing (51Cr release) of huBLCL/env cells expressing SIV env; type: cell-based, human; conditions: for Percent Specific Lysis: hu BLCL/env target cells, compound 1.0 nM added at beginning of 5 hour assay, 51Cr release
rh BLCL/env cells = assay: CTL-mediated killing (51Cr release) of rh BLCL/env cells expressing SIV env; type: cell-based, rhesus monkey; conditions: for Effect on CTL-mediated cell killing / lysis (in words): rh BLCL/env cells; for Percent Specific Lysis: rh BLCL/env target cells, compound 1.0 nM added at beginning of 5 hour assay, 51Cr release
[1] = Stability of deprenyl as a function of pH of the medium; type: physicochemical; conditions: pH about 3-5 versus pH about 7
Description: The stability of deprenyl can be affected by the pH of the medium in which the deprenyl is formulated. […] Therefore, when formulating a deprenyl compound in a pharmaceutical composition, it is preferred that the deprenyl compound be maintained at a suitable pH. In preferred embodiments, a pharmaceutical composition of the invention has a pH in the range of about 3 to about 5, more preferably about 3 to about 4. Furthermore, ethyl alcohol is a preferred solvent for improving stability of deprenyl. Thus, in certain embodiments, alcoholic or aqueous alcoholic media are preferred for the pharmaceutical compositions of the invention.

SMILES	Effect on CTL-mediated cell killing / lysis (in words) (Hela T4/env cells)	Percent Specific Lysis (Hela T4/env cells) [%]	Effect on CTL-mediated cell killing / lysis (in words) (ClR/env cells)	Percent Specific Lysis (ClR/env cells) [%]	Effect on association of GAPDH monomers (tetrameric vs dimeric form) (GAPDH)	Percent Specific Lysis (huBLCL/env cells) [%]	Effect on CTL-mediated cell killing / lysis (in words) (huBLCL/env cells; huBLCL/env cells)	Effect on CTL-mediated cell killing / lysis (in words) (rh BLCL/env cells)	Percent Specific Lysis (rh BLCL/env cells) [%]	Stability depending on pH [1]
C#CCNC(C)Cc1ccccc1 (single isomer, unassigned; (-)) [Desm., (−)-desmethyldeprenyl]	reduced cell killing in all four cell lines	30.65	reduced cell killing in all four cell lines	6.98	inducing the conversion of GAPDH from the tetrameric form to the dimeric form	−1.85	reduced cell killing in all four cell lines	reduced cell killing in all four cell lines	4.34	–
CC(=O)N[C@@H](CS)C(=O)O [NAC, N-acetyl cysteine]	effective in reducing lysis	30.74	effective in reducing lysis	29.12	–	13.41	–	effective in reducing lysis	6.32	–
C#CCN(C)C(C)Cc1ccccc1 (stereo not drawn) [deprenyl, N,α-dimethyl-N-2-propynylphenethylamine]	–	–	–	–	–	–	–	–	–	more stable at a pH in the range of about 3-5 than at a pH of about 7
